Source: the supplement of paper PMC10307832

How the values were obtained:
Assay in all cases: relative viability (nuclei count vs DMSO), 5 days (fraction); higher = more cells survive
NCI-H460 = test system: NCI-H460
Outline: (§1)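 Medians of duplicate plates are given as relative viability. That measure is the nuclei count in treated wells divided by the count in vehicle wells. Counts were taken on 4× images of lung cancer cell lines in 1536-well plates, 5 days after pin-tool dosing the day after seeding with one drug alone or a fixed anchor-drug dose plus five library-drug doses (not always all listed) in √10 steps.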

NCI-H1915 = test system: NCI-H1915
Outline: as §1

NCI-H1792 = test system: NCI-H1792
Outline: as §1

SW 1573 = test system: SW 1573
Outline: as §1

HOP-62 = test system: HOP-62
Outline: as §1

HCC-827 = test system: HCC-827
Outline: as §1

LCLC-103H = test system: LCLC-103H
Outline: as §1

NCI-H727 = test system: NCI-H727
Outline: as §1

NCI-H1437 = test system: NCI-H1437
Outline: as §1

HCC-366 = test system: HCC-366
Outline: as §1

NCI-H1975 = test system: NCI-H1975
Outline: as §1

NCI-H522 = test system: NCI-H522
Outline: as §1

HARA = test system: HARA
Outline: as §1

CAL-12T = test system: CAL-12T
Outline: as §1

COR-L 105 = test system: COR-L 105
Outline: as §1

NCI-H1395 = test system: NCI-H1395
Outline: as §1

NCI-H2009 = test system: NCI-H2009
Outline: as §1

SK-LU-1 = test system: SK-LU-1
Outline: as §1

A-427 = test system: A-427
Outline: as §1

EMC-BAC-2 = test system: EMC-BAC-2
Outline: as §1

NCI-H1755 = test system: NCI-H1755
Outline: as §1

NCI-H2228 = test system: NCI-H2228
Outline: as §1

NCI-H1355 = test system: NCI-H1355
Outline: as §1

NCI-H23 = test system: NCI-H23
Outline: as §1

## Clc1ccc(Nc2nnc(Cc3ccncc3)c3ccccc23)cc1 [Vatalanib] + COc1cccc2cc(-c3nc([C@H]4CC[C@H](C(=O)O)CC4)n4ncnc(N)c34)[nH]c12 [OSI-027] (partner 0.5 µM)
NCI-H460; first compound 0.04 µM
  relative viability: 0.713
NCI-H460; first compound 0.1265 µM
  relative viability: 0.703
NCI-H460; first compound 0.4 µM
  relative viability: 0.655
NCI-H460; first compound 1.265 µM
  relative viability: 0.65
NCI-H460; first compound 4 µM
  relative viability: 0.624
NCI-H1915; first compound 0.04 µM
  relative viability: 0.673
NCI-H1915; first compound 0.1265 µM
  relative viability: 0.636
NCI-H1915; first compound 0.4 µM
  relative viability: 0.632
NCI-H1915; first compound 1.265 µM
  relative viability: 0.649
NCI-H1915; first compound 4 µM
  relative viability: 0.61
NCI-H1792; first compound 0.04 µM
  relative viability: 0.678
NCI-H1792; first compound 0.1265 µM
  relative viability: 0.68
NCI-H1792; first compound 0.4 µM
  relative viability: 0.704
NCI-H1792; first compound 1.265 µM
  relative viability: 0.707
NCI-H1792; first compound 4 µM
  relative viability: 0.631
SW 1573; first compound 0.04 µM
  relative viability: 0.714
SW 1573; first compound 0.1265 µM
  relative viability: 0.574
SW 1573; first compound 0.4 µM
  relative viability: 0.666
SW 1573; first compound 1.265 µM
  relative viability: 0.585
SW 1573; first compound 4 µM
  relative viability: 0.59
HOP-62; first compound 0.04 µM
  relative viability: 0.906
HOP-62; first compound 0.1265 µM
  relative viability: 0.804
HOP-62; first compound 0.4 µM
  relative viability: 0.833
HOP-62; first compound 1.265 µM
  relative viability: 0.741
HOP-62; first compound 4 µM
  relative viability: 0.875
HCC-827; first compound 0.04 µM
  relative viability: 0.818
HCC-827; first compound 0.1265 µM
  relative viability: 0.729
HCC-827; first compound 0.4 µM
  relative viability: 0.739
HCC-827; first compound 1.265 µM
  relative viability: 0.744
HCC-827; first compound 4 µM
  relative viability: 0.705
LCLC-103H; first compound 0.04 µM
  relative viability: 0.496
LCLC-103H; first compound 0.1265 µM
  relative viability: 0.412
LCLC-103H; first compound 0.4 µM
  relative viability: 0.55
LCLC-103H; first compound 1.265 µM
  relative viability: 0.503
LCLC-103H; first compound 4 µM
  relative viability: 0.457
NCI-H727; first compound 0.04 µM
  relative viability: 0.562
NCI-H727; first compound 0.1265 µM
  relative viability: 0.545
NCI-H727; first compound 0.4 µM
  relative viability: 0.653
NCI-H727; first compound 1.265 µM
  relative viability: 0.562
NCI-H727; first compound 4 µM
  relative viability: 0.45
NCI-H1437; first compound 0.04 µM
  relative viability: 0.942
NCI-H1437; first compound 0.1265 µM
  relative viability: 0.949
NCI-H1437; first compound 0.4 µM
  relative viability: 0.937
NCI-H1437; first compound 1.265 µM
  relative viability: 0.792
NCI-H1437; first compound 4 µM
  relative viability: 0.879
HCC-366; first compound 0.04 µM
  relative viability: 1.18
HCC-366; first compound 0.1265 µM
  relative viability: 0.846
HCC-366; first compound 0.4 µM
  relative viability: 1.13
HCC-366; first compound 1.265 µM
  relative viability: 0.736
HCC-366; first compound 4 µM
  relative viability: 0.548
NCI-H1975; first compound 0.04 µM
  relative viability: 0.778
NCI-H1975; first compound 0.1265 µM
  relative viability: 0.739
NCI-H1975; first compound 0.4 µM
  relative viability: 0.688
NCI-H1975; first compound 1.265 µM
  relative viability: 0.568
NCI-H1975; first compound 4 µM
  relative viability: 0.673
NCI-H522; first compound 0.04 µM
  relative viability: 0.703
NCI-H522; first compound 0.1265 µM
  relative viability: 0.677
NCI-H522; first compound 0.4 µM
  relative viability: 0.73
NCI-H522; first compound 1.265 µM
  relative viability: 0.714
NCI-H522; first compound 4 µM
  relative viability: 0.796
HARA; first compound 0.04 µM
  relative viability: 0.506
HARA; first compound 0.1265 µM
  relative viability: 0.595
HARA; first compound 0.4 µM
  relative viability: 0.71
HARA; first compound 1.265 µM
  relative viability: 0.492
HARA; first compound 4 µM
  relative viability: 0.422
CAL-12T; first compound 0.04 µM
  relative viability: 0.574
CAL-12T; first compound 0.1265 µM
  relative viability: 0.523
CAL-12T; first compound 0.4 µM
  relative viability: 0.583
CAL-12T; first compound 1.265 µM
  relative viability: 0.556
CAL-12T; first compound 4 µM
  relative viability: 0.581
COR-L 105; first compound 0.04 µM
  relative viability: 0.694
COR-L 105; first compound 0.1265 µM
  relative viability: 0.59
COR-L 105; first compound 0.4 µM
  relative viability: 0.721
COR-L 105; first compound 1.265 µM
  relative viability: 0.721
COR-L 105; first compound 4 µM
  relative viability: 0.561
NCI-H1395; first compound 0.04 µM
  relative viability: 0.632
NCI-H1395; first compound 0.1265 µM
  relative viability: 0.634
NCI-H1395; first compound 0.4 µM
  relative viability: 0.597
NCI-H1395; first compound 1.265 µM
  relative viability: 0.651
NCI-H1395; first compound 4 µM
  relative viability: 0.604
NCI-H2009; first compound 0.04 µM
  relative viability: 0.73
NCI-H2009; first compound 0.1265 µM
  relative viability: 0.561
NCI-H2009; first compound 0.4 µM
  relative viability: 0.647
NCI-H2009; first compound 1.265 µM
  relative viability: 0.58
NCI-H2009; first compound 4 µM
  relative viability: 0.626
SK-LU-1; first compound 0.04 µM
  relative viability: 0.365
SK-LU-1; first compound 0.1265 µM
  relative viability: 0.346
SK-LU-1; first compound 0.4 µM
  relative viability: 0.395
SK-LU-1; first compound 1.265 µM
  relative viability: 0.357
SK-LU-1; first compound 4 µM
  relative viability: 0.348
A-427; first compound 0.04 µM
  relative viability: 0.504
A-427; first compound 0.1265 µM
  relative viability: 0.453
A-427; first compound 0.4 µM
  relative viability: 0.494
A-427; first compound 1.265 µM
  relative viability: 0.464
A-427; first compound 4 µM
  relative viability: 0.486
EMC-BAC-2; first compound 0.04 µM
  relative viability: 0.413
EMC-BAC-2; first compound 0.1265 µM
  relative viability: 0.392
EMC-BAC-2; first compound 0.4 µM
  relative viability: 0.398
EMC-BAC-2; first compound 1.265 µM
  relative viability: 0.335
EMC-BAC-2; first compound 4 µM
  relative viability: 0.4
NCI-H1755; first compound 0.04 µM
  relative viability: 0.82
NCI-H1755; first compound 0.1265 µM
  relative viability: 0.747
NCI-H1755; first compound 0.4 µM
  relative viability: 0.705
NCI-H1755; first compound 1.265 µM
  relative viability: 0.654
NCI-H1755; first compound 4 µM
  relative viability: 0.634
NCI-H2228; first compound 0.04 µM
  relative viability: 0.568
NCI-H2228; first compound 0.1265 µM
  relative viability: 0.566
NCI-H2228; first compound 0.4 µM
  relative viability: 0.604
NCI-H2228; first compound 1.265 µM
  relative viability: 0.589
NCI-H2228; first compound 4 µM
  relative viability: 0.504
NCI-H1355; first compound 0.04 µM
  relative viability: 0.427
NCI-H1355; first compound 0.1265 µM
  relative viability: 0.431
NCI-H1355; first compound 0.4 µM
  relative viability: 0.435
NCI-H1355; first compound 1.265 µM
  relative viability: 0.413
NCI-H1355; first compound 4 µM
  relative viability: 0.34
NCI-H23; first compound 0.04 µM
  relative viability: 0.634
NCI-H23; first compound 0.1265 µM
  relative viability: 0.613
NCI-H23; first compound 0.4 µM
  relative viability: 0.779
NCI-H23; first compound 1.265 µM
  relative viability: 0.517
NCI-H23; first compound 4 µM
  relative viability: 0.387
